We go through 15 molecules from ChEMBL document CHEMBL1795288, “Lignans and neolignans from Sinocalamus affinis and their absolute configurations” (2011).

Activity calls are given as the source filed them. No cut-off for these calls is given here.

In experiment [1] the test system is A549. Briefly: Cytotoxicity against human A549 cells at 10 uM after 96 hrs by MTT assay. In kind it is functional, cell-based. (In general: Formazan colour is commonly taken as a measure of viable cells.)
In experiment [2] the test system is KETR3. Briefly: Cytotoxicity against human Ketr3 cells at 10 uM after 96 hrs by MTT assay. In kind it is functional, cell-based.
Experiment [3] has as its system HCT-8. Briefly: Cytotoxicity against human HCT8 cells at 10 uM after 96 hrs by MTT assay. It is filed as functional, cell-based.
The test system of experiment [4] is Bel-7402. Kind of experiment: Cytotoxicity against human Bel7402 cells at 10 uM after 96 hrs by MTT assay. It is filed as functional, cell-based.
Experiment [5] deals with Peritoneal macrophage cell. Kind of experiment: Inhibition of LPS-induced nitric oxide production in C57BL/6J mouse peritoneal macrophages at 10 uM after 24 hrs by Griess reaction. It is filed as functional. (In general: Nitrite, measured by Griess reagent, commonly stands in for NO production.)
Experiment [6] deals with MCF7. Kind of experiment: Cytotoxicity against human MCF7 cells at 10 uM after 96 hrs by MTT assay. It is filed as functional, cell-based.
Experiment [7] deals with WB-F344. Briefly: Hepatoprotective activity against DL-galactosamine-induced cell damage in rat WB-F344 cells at 10 uM after 24 hrs by MTT assay. In kind it is functional, cell-based.
The subject of experiment [8] is BGC-823. Kind of experiment: Cytotoxicity against human BGC823 cells at 10 uM after 96 hrs by MTT assay. In kind it is functional, cell-based.
The subject of experiment [9] is Human immunodeficiency virus 1. Kind of experiment: Antiviral activity against HIV1 NL4-3 infected in human 293T cells assessed as inhibition of viral replication at 10 uM after 48 hrs by luciferase reporter gene assay. It is filed as functional, organism-based. (In general: A reporter such as luciferase makes a cellular process visible.)
The test system of experiment [10] is Liver microsomes. Briefly: Antioxidant activity in rat Liver microsome assessed as inhibition of Fe2+-cystine-induced lipid peroxidation at 10 uM. In kind it is functional.
Experiment [11] deals with PC-12. Kind of experiment: Neuroprotective activity against serum deprivation-induced toxicity in rat PC12 cells assessed as increase in cell viability at 10 uM after 48 hrs by MTT assay. In kind it is functional.

In the case of `COc1cc(C(=O)[C@@H]2CO[C@H](c3cc(OC)c(O)c(OC)c3)[C@H]2CO)cc(OC)c1O`, the outcome in experiment [1], in experiment [2], in experiment [3], in experiment [4], in experiment [6] and in experiment [7] was inactive. In addition, in experiment [8], the outcome was inactive. Moreover, the inhibition at 10 µM in experiment [5] was under 30%. The inhibition result in experiment [9] and in experiment [10] was “inactive” each time.
Regarding `COc1cc([C@@H]2OC[C@@H]3[C@H]2CO[C@H]3c2cc(OC)c(OC)c(OC)c2)cc(OC)c1O`, the outcome in [1], in experiment [2], in experiment [3], in experiment [4], in experiment [6] and in [7] was inactive. For the same molecule, the result in experiment [8] was inactive. In addition, the inhibition at 10 µM in [5] is under 30%. Moreover, the inhibition result in [9] and in experiment [10] was “inactive” throughout.
In the case of `COc1cc([C@@H](O)[C@H](CO)Oc2c(OC)cc(-c3cc(=O)c4c(O)cc(O)cc4o3)cc2OC)ccc1O`, the outcome in [1], in experiment [2], in experiment [3], in [4], in [6] and in experiment [7] was inactive. The outcome in [8] was inactive. Also, the inhibition at 10 µM in [5] is under 30%. Moreover, the inhibition entry in [9] and in experiment [10] was “inactive” in each case.
Take `COc1cc([C@H](O)[C@@H](CO)Oc2c(OC)cc([C@@H]3Oc4c(OC)cc(C=O)cc4[C@H]3CO)cc2OC)ccc1O`: the result in experiment [1], in experiment [2], in [3], in experiment [4], in experiment [6] and in [7] was inactive. For the same molecule, in experiment [8], the result was inactive. Moreover, the inhibition at 10 µM in [5] was under 30%. Further, the inhibition result in experiment [9] and in experiment [10] was “inactive” each time.
`C[C@@H]1C[C@H]2[C@@H]3CCC4=CC(=O)C=C[C@]4(C)[C@@]3(F)[C@@H](O)C[C@]2(C)[C@@]1(O)C(=O)CO` [DEXAMETHASONE] yielded an inhibition at 10 µM in experiment [5] of 61.6%.
As to `COc1cc([C@@H]2Oc3c(OC)cc(/C=C/CO)cc3[C@H]2CO)cc(OC)c1OC`, the outcome in [1], in experiment [2], in experiment [3], in experiment [4], in experiment [6] and in experiment [7] was inactive. Moreover, the result in experiment [8] was inactive. This molecule also had an inhibition at 10 µM in experiment [5] of under 30%. Further, the inhibition entry in experiment [9] and in experiment [10] was “inactive” in each case.
Consider `COc1cc([C@@H](O)[C@H](CO)Oc2c(OC)cc([C@@H]3OC[C@@H]4[C@H]3CO[C@H]4c3cc(OC)c(O[C@@H](CO)[C@H](O)c4ccc(O)c(OC)c4)c(OC)c3)cc2OC)ccc1O`, for which the outcome in [1], in experiment [2], in experiment [3], in experiment [4], in experiment [6] and in experiment [7] was inactive. Further, the result in [8] was inactive. This molecule returned an inhibition at 10 µM in experiment [5] of under 30%. Moreover, the inhibition entry in experiment [9] and in experiment [10] was “inactive” each time.
Take `COc1cc(-c2cc(=O)c3c(O)cc(O)cc3o2)cc(OC)c1O[C@@H](CO)[C@H](O)c1ccc(O)cc1`: the outcome in experiment [1], in experiment [2], in experiment [3], in experiment [4], in experiment [6] and in experiment [7] was inactive. The outcome in experiment [8] was inactive. Moreover, the Activity in experiment [11] is on record as 80.7%. In addition, the inhibition at 10 µM in experiment [5] is under 30%. In addition, the inhibition result in [9] and in experiment [10] was “inactive” throughout.
`COc1cc([C@H](O)[C@H](CO)Oc2c(OC)cc(-c3cc(=O)c4c(O)cc(O)cc4o3)cc2OC)ccc1O` [SALCOLIN B]: the outcome in experiment [1], in experiment [2], in experiment [3], in experiment [4], in experiment [6] and in [7] was inactive. Besides, the outcome in experiment [8] was inactive. Besides, the Activity in experiment [11] amounted to 97.6%. Further, the inhibition at 10 µM in [5] is 71.7%. The inhibition entry in [9] and in experiment [10] was “inactive” each time.
For the molecule `COc1cc([C@H](O)[C@H](CO)Oc2c(OC)cc(O)cc2OC)ccc1O`, the outcome in experiment [1], in experiment [2], in experiment [3], in experiment [4], in [6] and in [7] was inactive. Moreover, in experiment [8], the outcome was inactive. The same molecule registered an inhibition at 10 µM in experiment [5] of under 30%. Besides, the inhibition result in experiment [9] and in experiment [10] was “inactive” in each case.
With `COc1cc([C@H](O)[C@H](CO)Oc2c(OC)cc(C(=O)O)cc2OC)ccc1O`, the result in [1], in [2], in [3], in experiment [4], in experiment [6] and in [7] was inactive. Further, the outcome in [8] was inactive. The inhibition at 10 µM in [5] was under 30%. The inhibition entry in experiment [9] and in experiment [10] was “inactive” each time.
Take `COc1cc([C@@H]2O[C@@H](c3cc(OC)c(OC)c(OC)c3)[C@H](CO)[C@H]2CO)cc(OC)c1O`: the outcome in [1], in experiment [2], in experiment [3], in experiment [4], in [6] and in experiment [7] was inactive. Further, the outcome in [8] was inactive. In [5], this molecule had an inhibition at 10 µM of under 30%. Moreover, the inhibition entry in [9] and in experiment [10] was “inactive” in each case.
As to `COc1cc([C@H](O)[C@H](CO)Oc2c(OC)cc([C@@H]3OC[C@@H]4[C@H]3CO[C@H]4c3cc(OC)c(O[C@@H](CO)[C@@H](O)c4ccc(O)c(OC)c4)c(OC)c3)cc2OC)ccc1O`, the outcome in experiment [1], in experiment [2], in experiment [3], in experiment [4], in experiment [6] and in [7] was inactive. In experiment [8], the result was inactive. For the same molecule, in experiment [5], the inhibition at 10 µM was under 30%. The inhibition entry in experiment [9] and in experiment [10] was “inactive” in each case.
As to `COc1cc2c(c(OC)c1O)[C@H]1c3c(cc(OC)c(O)c3OC)OC[C@@H](C2)[C@H]1CO`, the result in [1], in experiment [2], in experiment [3], in [4], in experiment [6] and in experiment [7] was inactive. Further, in experiment [8], the outcome was inactive. This molecule displayed an inhibition at 10 µM in experiment [5] of under 30%. The inhibition entry in experiment [9] and in experiment [10] was “inactive” each time.
As to `COc1cc(-c2cc(=O)c3c(O)cc(O)cc3o2)cc(OC)c1O[C@@H](CO)[C@@H](O)c1ccc(O)cc1`, the result in experiment [1], in [2], in experiment [3], in [4], in experiment [6] and in [7] was inactive. Also, in experiment [8], the result was inactive. The Activity in [11] is recorded as 107.2%. Moreover, testing at 10 µM in [5] gave an inhibition of 84.2%. The inhibition entry in experiment [9] and in experiment [10] was “inactive” each time.

One may read the inhibition as the change of the read-out against control, counted positive when it falls.
